Results: article PMC7618597, “Dual Nurr1/RXR agonism of valerenic acid and synthetic mimetics enables dimer-selective Nurr1 modulation” (ACS medicinal chemistry letters, 2025)
Several values for one entry are separate records, joined by “and”; a condition that tells them apart may be missing. Equal values may be shown once.

How the values were obtained:
Nurr1 LBD = biological target: T1, Nurr1 LBD (Homo sapiens, UniProt P43354); test: Isothermal titration calorimetry, recombinant Nurr1 LBD; type: binding; conditions: ITC
T1 construct: made in house
Procedure: Isothermal titration calorimetry. ITC experiments for ligand binding to Nurr1 and RXR were conducted on an Affinity ITC instrument (TA Instruments, New Castle, DE) at 25 °C with a stirring rate of 75 rpm using recombinantly expressed ligand binding domain proteins as described previously5,6. The respective LBD protein (12–25 μM) in buffer (20 mM Tris pH 7.5, 100 mM NaCl, 5% glycerol) containing 2-4% DMSO was titrated with the test compounds (100-150 μM in the same buffer containing 2-4% DMSO) in 21–26 injections (1 × 1 μL and 20 × 4 to 25 × 4 μL) with an injection interval of 120 s. As control experiments, the test compounds were titrated to the buffer, and the buffer was titrated to the protein under otherwise identical conditions. The heat rates of the compound-Nurr1 LBD titrations were analyzed using NanoAnalyze software (TA Instruments, New Castle, DE) with an independent binding model.

[1] = biological target: T2, Nurr1:RXR heterodimer (DR5) (Homo sapiens, UniProt P19793+P43354); test: Full-length Nurr1 reporter gene assay, heterodimer response element DR5; type: cell-based; conditions: read-out: EC50, activation of the Nurr1:RXR heterodimer (DR5)
T2 construct: full-length human nuclear receptor Nurr1 encoded by pcDNA3.1 -hNurr1-NE; full length human RXRα encoded by pSG5-hRXR; host or cells: HEK293T
Procedure: Based on these findings, we next determined the effects of 2 and 3 on Nurr1 activity in a cellular setting using reporter constructs for the NGFI-B response element (NBRE), the Nur response element (NurRE), and the direct repeat 5 (DR5)[36]. All three response elements are robustly activated by common Nurr1 agonists[4],[31]. […]
Reporter gene assays for full-length human Nurr1 and RXR. Modulation of full-length human Nurr1 (NR4A2) was studied using pRL-SV40 (1.5 ng/well reporter plasmid) and the previously described4 reporter plasmids pFR-Luc-NBRE (100 ng/well reporter plasmid), pFR-Luc-NurRE (50 ng/well reporter plasmid) or pFR-Luc-DR5 (50 ng/well reporter plasmid). […] Five hours after transfection, the cells wer e incubated with the test compounds in Opti-MEM supplemented with penicillin (100 U/mL), streptomycin (100 μg/mL), and 0.1% DMSO for 15 h before luciferase activity was measured using the Dual-Glo Luciferase Assay System (Promega) according to the manufacturer’s protocol on a Tecan Spark luminometer (Tecan Deutschland GmbH, Germany). Firefly luminescence was divided by Renilla luminescence and multiplied by 1000, resulting in relative light units (RLU) to normalize for transfection efficiency and cell growth. […]

Nurr1 = biological target: T3, Nurr1 (Homo sapiens, UniProt P43354); test: Gal4-hybrid reporter gene assay, Nurr1; type: cell-based; conditions: Gal4-hybrid reporter gene assay; for max. act. (Nurr1): max. fold activation; for EC50: mean±S.E.M., n≥3
T3 construct: pFA-CMV-hNurr1-LBD; expressed in transfected cells; host or cells: HEK293T
Procedure: (§1) modified Eagle’s medium (DMEM), high glucose supplemented with 10% fetal calf serum (FCS), sodium pyruvate (1 mM), penicillin (100 U/mL), and streptomycin (100 μg/mL) at 37 °C and 5% CO2 and seeded in 96-well plates (3×10^4 cells/well). After 24 h, the medium was changed to Opti-MEM without supplements, and the cells were transiently transfected using Lipofectamine LTX reagent (Invitrogen) according to the manufacturer’s protocol. Five hours after transfection, the cells were incubated with the test compounds in Opti-MEM supplemented with penicillin (100 U/mL), streptomycin (100 μg/mL), and 0.1% DMSO for 15 h before luciferase activity was measured using the Dual -Glo Luciferase Assay System (Promega) according to the manufacturer’s protocol on a Tecan Spark l uminometer (Tecan Deutschland GmbH, Germany). Firefly luminescence was divided by Renilla luminescence and multiplied by 1000, resulting in relative light units (RLU) to normalize for transfection efficiency and cell growth. Fold activation was obtained by dividing the mean RLU of a sample by the mean RLU of the untreated control. All samples were tested in at least three biologically independent experiments in duplicates. For dose –response curve fitting and calculation of EC50 values, the equation “[Agonist] vs. response – Variable slope (four parameters)” was used in GraphPad Prism (version 5.04, GraphPad Software, La Jolla, CA, USA). […] (10 μM, NR4A) and bexarotene (1 µM, NR2B) served as the positive control. […]
(§2) 150 μM in the same buffer containing 2-4% DMSO) in 21–26 injections (1 × 1 μL and 20 × 4 to 25 × 4 μL) with an injection interval of 120 s. As control experiments, the test compounds were titrated to the buffer, and the buffer was titrated to the protein under otherwise identical conditions. The heat rates of the compound-Nurr1 LBD titrations were analyzed using NanoAnalyze software (TA Instruments, New Castle, DE) with an independent binding model.

RXRγ = biological target: T4, RXRγ (Homo sapiens, UniProt P48443); test: Gal4-hybrid reporter gene assay, RXRγ; type: cell-based; conditions: Gal4-hybrid reporter gene assay; for EC50: mean±S.E.M., n≥3
T4 construct: pFA-CMV-hRXRγ-LBD; expressed in transfected cells; host or cells: HEK293T
T4 sequence (P48443 231-459 limits assumed): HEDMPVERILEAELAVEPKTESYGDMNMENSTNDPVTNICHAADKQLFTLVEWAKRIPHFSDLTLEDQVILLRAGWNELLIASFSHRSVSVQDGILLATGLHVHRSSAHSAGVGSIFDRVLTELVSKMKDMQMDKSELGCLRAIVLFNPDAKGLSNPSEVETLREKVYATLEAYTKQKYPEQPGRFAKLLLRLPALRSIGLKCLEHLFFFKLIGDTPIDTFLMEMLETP
Procedure: as §1, §2

T3 sequence (P43354 360-595 limits assumed): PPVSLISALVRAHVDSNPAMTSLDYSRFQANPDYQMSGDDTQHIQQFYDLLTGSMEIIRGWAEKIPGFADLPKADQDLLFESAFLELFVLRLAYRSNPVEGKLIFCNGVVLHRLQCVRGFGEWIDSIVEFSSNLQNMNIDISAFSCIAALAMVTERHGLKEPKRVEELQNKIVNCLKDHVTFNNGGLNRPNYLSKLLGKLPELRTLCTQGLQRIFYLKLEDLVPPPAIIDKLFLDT
T1 sequence (P43354 360-595 limits assumed): as above
T2 sequence (P43354 whole entry): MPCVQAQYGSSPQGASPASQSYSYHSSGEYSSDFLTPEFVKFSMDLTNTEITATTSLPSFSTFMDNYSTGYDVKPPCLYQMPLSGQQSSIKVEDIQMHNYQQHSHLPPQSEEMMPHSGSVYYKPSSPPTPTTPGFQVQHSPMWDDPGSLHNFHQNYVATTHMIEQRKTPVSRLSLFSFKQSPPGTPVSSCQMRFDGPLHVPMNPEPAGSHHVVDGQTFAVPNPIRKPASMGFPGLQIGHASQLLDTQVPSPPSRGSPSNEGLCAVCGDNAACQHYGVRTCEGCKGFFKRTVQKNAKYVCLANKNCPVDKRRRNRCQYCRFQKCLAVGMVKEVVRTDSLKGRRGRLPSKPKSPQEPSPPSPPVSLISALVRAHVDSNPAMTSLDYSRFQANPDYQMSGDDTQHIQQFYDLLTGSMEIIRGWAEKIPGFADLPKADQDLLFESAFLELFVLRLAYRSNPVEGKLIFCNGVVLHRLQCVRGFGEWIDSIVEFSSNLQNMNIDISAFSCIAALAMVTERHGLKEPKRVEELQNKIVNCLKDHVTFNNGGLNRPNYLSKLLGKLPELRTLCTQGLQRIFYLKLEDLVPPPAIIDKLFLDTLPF
T2 sequence (P19793 whole entry): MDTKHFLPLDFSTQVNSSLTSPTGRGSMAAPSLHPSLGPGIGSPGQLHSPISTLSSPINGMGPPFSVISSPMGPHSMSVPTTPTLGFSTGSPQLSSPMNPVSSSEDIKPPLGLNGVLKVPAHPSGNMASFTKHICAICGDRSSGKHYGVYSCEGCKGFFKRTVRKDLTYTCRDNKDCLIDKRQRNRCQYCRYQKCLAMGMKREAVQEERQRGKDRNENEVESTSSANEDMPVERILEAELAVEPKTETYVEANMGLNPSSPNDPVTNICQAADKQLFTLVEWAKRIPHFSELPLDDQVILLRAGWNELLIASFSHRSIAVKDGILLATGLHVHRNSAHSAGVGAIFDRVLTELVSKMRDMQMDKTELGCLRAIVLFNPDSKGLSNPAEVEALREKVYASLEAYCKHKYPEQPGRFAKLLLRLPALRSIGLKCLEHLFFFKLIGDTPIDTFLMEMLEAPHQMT

Row | Compound | Kd (Nurr1 LBD) | EC50 [1] | max. act. (Nurr1) (Nurr1) | EC50 (Nurr1) | max. act. (RXR) γ (RXRγ) | EC50 (RXRγ)
1 | Cc1c2c(n(-c3ccc(CC(=O)O)cc3)c1C)CCC(F)(F)C2 [compound 2] | 0.6 µM | 1 µM | 3.3 fold and 3.3±0.1 fold | 2.6 ± 0.4 µM | 44±1 fold | 3.4 µM
2 | Cc1c(C)n(-c2ccc(CC(=O)O)cc2)c2ccc(F)cc12 [compound 3] | 0.6 µM | 0.6 µM | 4.3±0.5 fold | 2.2 ± 0.9 µM | 67±4 fold | 1.7 µM
